biological target: Serine/threonine-protein kinase ATR (Homo sapiens, UniProt Q13535); test: In Vitro Inhibitory Activity Against ATR Kinase
Experimental: A 50 ng/μL ATR stock solution was diluted with a kinase buffer (50 mM HEPES, 10 mM MgCl2, 2 mM DTT, 1 mM EGTA, 0.01% Tween 20), and 6 μL of 1.67×, 0.0835 ng/μL working solution was added to each well (final concentration: 0.05 ng/μL). Different compounds dissolved in DMSO were added to wells using a nanoliter pipettor, such that the final concentrations of the compounds were 1000 nM-0.24 nM and the concentrations in positive wells were 100 nM-0.024 nM (4-fold gradient, 7 concentrations in total). Meanwhile, a blank control well (containing no enzyme) and a negative control well (containing enzyme, with the vehicle DMSO added) were set. After the enzyme had reacted with the compound or vehicle for 30 min, a 5×, 50 μM ATP (final concentration: 10 μM) prepared with the kinase buffer and a 5×, 0.5 μM substrate (final concentration: 0.1 μM, U Light-poly GT) were 1:1 mixed, and the mixture was added to wells at 4 μL/well. After the plate was sealed with a sealing film and the plate was incubated at room temperature for 2 h, 5 μL of 4×, 40 mM EDTA (final concentration: 10 mM) was added to each well. After 5 min of incubation at room temperature, 5 μL of a 4×, 8 nM assay reagent (final concentration: 2 nM, Ep-anti-phospho-tyrosine antibody) was added to each well. The plate was incubated at room temperature for 1 h. Plate reading was performed on a PE instrument (excitation: 320 or 340 nm; emission: 665 nm), and four-parameter fitting and IC50 calculations were performed.

Serine/threonine-protein kinase ATR, sequence (Q13535 whole entry): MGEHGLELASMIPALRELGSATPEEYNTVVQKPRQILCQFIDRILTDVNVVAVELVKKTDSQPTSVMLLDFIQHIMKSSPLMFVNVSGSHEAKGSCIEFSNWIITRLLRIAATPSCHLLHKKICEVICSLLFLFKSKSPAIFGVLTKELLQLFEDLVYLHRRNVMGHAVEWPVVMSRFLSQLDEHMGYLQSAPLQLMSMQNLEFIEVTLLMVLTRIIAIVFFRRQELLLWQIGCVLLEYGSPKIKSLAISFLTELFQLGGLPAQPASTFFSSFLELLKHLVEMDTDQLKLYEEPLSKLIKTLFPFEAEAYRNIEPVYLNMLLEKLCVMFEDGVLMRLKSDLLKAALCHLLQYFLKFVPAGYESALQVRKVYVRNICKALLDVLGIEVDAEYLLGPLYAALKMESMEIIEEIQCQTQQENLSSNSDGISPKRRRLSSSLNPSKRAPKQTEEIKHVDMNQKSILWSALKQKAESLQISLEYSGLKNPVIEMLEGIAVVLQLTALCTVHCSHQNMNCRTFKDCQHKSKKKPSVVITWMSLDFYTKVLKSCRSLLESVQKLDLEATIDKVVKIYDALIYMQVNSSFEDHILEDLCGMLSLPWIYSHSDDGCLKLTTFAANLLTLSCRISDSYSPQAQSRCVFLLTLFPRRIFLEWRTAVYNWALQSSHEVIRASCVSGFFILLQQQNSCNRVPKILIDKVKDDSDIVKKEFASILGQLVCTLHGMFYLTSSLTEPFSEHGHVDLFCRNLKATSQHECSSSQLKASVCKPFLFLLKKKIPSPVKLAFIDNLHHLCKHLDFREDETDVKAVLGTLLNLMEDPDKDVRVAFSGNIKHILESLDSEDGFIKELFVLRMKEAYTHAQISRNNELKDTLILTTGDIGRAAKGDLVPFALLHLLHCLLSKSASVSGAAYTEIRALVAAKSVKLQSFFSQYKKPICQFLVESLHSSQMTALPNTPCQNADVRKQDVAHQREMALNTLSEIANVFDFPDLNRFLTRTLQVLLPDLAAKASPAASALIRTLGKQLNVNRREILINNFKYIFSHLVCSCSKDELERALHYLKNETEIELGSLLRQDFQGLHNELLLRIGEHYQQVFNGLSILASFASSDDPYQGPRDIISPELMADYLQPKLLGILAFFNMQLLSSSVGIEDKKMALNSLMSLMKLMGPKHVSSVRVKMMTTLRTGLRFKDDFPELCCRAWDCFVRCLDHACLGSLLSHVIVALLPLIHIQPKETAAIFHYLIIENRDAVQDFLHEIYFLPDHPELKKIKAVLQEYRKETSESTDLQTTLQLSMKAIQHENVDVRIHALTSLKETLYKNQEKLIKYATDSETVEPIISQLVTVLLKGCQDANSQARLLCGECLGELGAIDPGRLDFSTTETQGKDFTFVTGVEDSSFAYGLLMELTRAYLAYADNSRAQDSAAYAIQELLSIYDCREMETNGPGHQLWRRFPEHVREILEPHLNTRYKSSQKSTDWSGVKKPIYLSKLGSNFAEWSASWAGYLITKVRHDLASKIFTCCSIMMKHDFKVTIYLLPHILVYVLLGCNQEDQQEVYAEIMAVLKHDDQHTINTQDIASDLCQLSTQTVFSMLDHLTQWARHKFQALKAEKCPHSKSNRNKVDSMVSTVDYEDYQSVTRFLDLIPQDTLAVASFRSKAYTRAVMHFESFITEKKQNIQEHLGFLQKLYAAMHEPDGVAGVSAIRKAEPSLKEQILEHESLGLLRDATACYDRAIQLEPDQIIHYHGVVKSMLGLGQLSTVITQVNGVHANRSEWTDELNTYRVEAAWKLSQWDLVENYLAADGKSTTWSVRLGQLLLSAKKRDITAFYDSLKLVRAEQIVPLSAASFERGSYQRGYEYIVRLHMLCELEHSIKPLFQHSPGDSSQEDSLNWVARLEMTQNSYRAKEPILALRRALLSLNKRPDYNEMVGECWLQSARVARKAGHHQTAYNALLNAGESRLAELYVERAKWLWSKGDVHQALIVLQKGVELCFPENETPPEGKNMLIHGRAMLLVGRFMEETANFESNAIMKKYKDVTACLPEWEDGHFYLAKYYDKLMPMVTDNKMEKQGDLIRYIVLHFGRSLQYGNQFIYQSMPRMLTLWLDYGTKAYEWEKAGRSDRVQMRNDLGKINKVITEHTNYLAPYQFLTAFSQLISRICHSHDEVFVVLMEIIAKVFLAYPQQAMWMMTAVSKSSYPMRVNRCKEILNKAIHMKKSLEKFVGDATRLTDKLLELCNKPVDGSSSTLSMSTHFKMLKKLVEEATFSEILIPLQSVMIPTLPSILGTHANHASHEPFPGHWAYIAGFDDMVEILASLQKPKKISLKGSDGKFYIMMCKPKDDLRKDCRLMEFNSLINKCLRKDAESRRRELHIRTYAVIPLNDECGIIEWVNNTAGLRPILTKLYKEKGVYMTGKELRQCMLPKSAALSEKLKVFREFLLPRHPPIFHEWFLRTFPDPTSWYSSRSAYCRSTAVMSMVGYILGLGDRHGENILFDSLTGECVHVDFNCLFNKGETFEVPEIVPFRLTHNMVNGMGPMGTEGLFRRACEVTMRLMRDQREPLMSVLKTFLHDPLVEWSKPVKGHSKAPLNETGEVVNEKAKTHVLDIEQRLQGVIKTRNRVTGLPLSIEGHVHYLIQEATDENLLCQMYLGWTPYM

IC50, < 50 nM:
C[C@@H]1COCCN1c1cc(N=S2(=O)CCCC2)c2cnn(-c3ccn[nH]3)c2n1 [US20250026750, Compound 4]
C[C@@H]1COCCN1c1cc(N=S(C)(C)=O)c2c(C(C)(C)C)nn(-c3cc[nH]n3)c2n1 [US20250026750, Compound 25]
C[C@@H]1COCCN1c1cc(N=S(C)(=O)C(C)(C)C)c2cnn(-c3ccn[nH]3)c2n1 (some centres undefined) [US20250026750, Compound 17]
C[C@@H]1COCCN1c1cc(N=S2(=O)CCOCC2)c2cnn(-c3ccn[nH]3)c2n1 [US20250026750, Compound 6]
C[C@@H]1COCCN1c1cc(N=S(C)(C)=O)c2c(CCC(F)(F)F)nn(-c3ccn[nH]3)c2n1 [US20250026750, Compound 24]
C[C@@H]1COCCN1c1cc(N=S(C)(C)=O)c2c(C(F)(F)F)nn(-c3ccn[nH]3)c2n1 [US20250026750, Compound 23]
Cc1nn(-c2ccn[nH]2)c2nc(N3CCOC[C@H]3C)cc(N=S(C)(C)=O)c12 [US20250026750, Compound 20]
C[C@@H]1COCCN1c1cc(N=S2(=O)CCC2)c2cnn(-c3ccn[nH]3)c2n1 [US20250026750, Compound 3]
C[C@@H]1COCCN1c1cc(N=S(C)(C)=O)c2cnn(-c3ccn[nH]3)c2n1 [US20250026750, Compound 1]
